The nature of one data set: in vivo. The conditions noted are these: mouse, po. The method, then: Acute oral toxicity of the compounds of the present invention to mice was determined after the manner of Hollingworth, Fukuto, and Metcalf in J. Agr. […] A dose of 0.25 ml of each solution was administered to each of four female white Swiss mice using the "bolus" - tipped syringe. […] Final mortality determinations were made forty-eight hours after treatment.

A further data set has as its system Culex fatigans. Kind of data set: whole plant or invertebrate. The conditions noted are these: Culex quinquefasciatus, 24 h, read-out: Mosquitoes LC50. The protocol: The appropriate amount of stock solution was added with stirring to 100 ml of tap water and 20-25 fourth instar larvae of Culex fatigans were placed in the solution. After twenty-four hours, the counts were taken. Larvae not able to rise to the surface on touch were counted as dead. Each concentration was run in duplicate and each material was run on two or three different days. The average percent mortality was plotted against the logarithm of the concentration (in ppm) and the LC50 value determined by inspection.

For another data set, the system named is houseflies. Kind of data set: whole plant or invertebrate. The conditions noted are these: Musca domestica, topical, 24 h, read-out: Houseflies LD50. The protocol:
Toxicity of the compounds of the present invention to houseflies was tested using the technique described by March and Metcalf in Bull. Calif. State Dept. Agr. […] Adult female houseflies were treated with one drop of acetone solution, applied to the prothorax, using a syringe calibrated to deliver 1.00 ± 0.05 mm^3 drops. Twenty flies were treated at each dosage, each test compound was applied at 8 to 10 dosage levels. Each test was replicated three times. […] A one-inch square of cotton saturated with 40% sugar solution was provided for food in each carton. The cartons of flies were held in a constant temperature chamber at 60° F and 60% relative humidity for 24 hours before mortality counts were made. Flies totally unable to make crawling or walking movements were counted as dead. LD50 values were calculated in the conventional manner.

In data set [1] the test system is southern army worm. The conditions noted are these: 2880 min.
For data set [2], the system named is milkweed bug. Put plainly: Residual contact activity, milkweed bug. The conditions noted are these: Oncopeltus fasciatus, 48 h, read-out: % Kill, MWB (residual contact).
The subject of data set [3] is southern army worm. Put plainly: Residual contact activity, southern army worm. The conditions noted are these: 1250 ppm; 7 days; 2880 min.
For data set [4], the system named is southern army worm. Kind of data set: Initial contact activity, southern army worm. The conditions noted are these: 1250 ppm, 48 h exposure.
Data set [5] concerns Mexican bean beetle. Kind of data set: Residual contact activity, Mexican bean beetle. The conditions noted are these: Epilachna varivestis, 48 h, read-out: % Kill, BB (residual contact).
The test system of data set [6] is pea aphid. Kind of data set: whole plant or invertebrate. The conditions noted are these: Acyrthosiphon pisum, 48 h, read-out: % Kill, PA (systemic).
Data set [7] deals with two-spotted spider mite. Kind of data set: whole plant or invertebrate. The conditions noted are these: Tetranychus urticae, 48 h.
For data set [8], the system named is pea aphid. Kind of data set: Residual contact activity, pea aphid. The conditions noted are these: Acyrthosiphon pisum, 48 h, read-out: % Kill, PA (residual contact).
Data set [9] deals with plum curculio. Kind of data set: Initial contact activity, plum curculio. The conditions noted are these: Conotrachelus nenuphar, 48 h, read-out: % Kill, PC (initial contact).
Data set [10] deals with granary weevil. Kind of data set: Initial contact activity, granary weevil. The conditions noted are these: Sitophilus granarius, 48 h, read-out: % Kill, GW (initial contact).
Data set [11] has as its system plum curculio. Kind of data set: Residual contact activity, plum curculio. The conditions noted are these: Conotrachelus nenuphar, 48 h, read-out: % Kill, PC (residual contact).
The subject of data set [12] is milkweed bug. Put plainly: Initial contact activity, milkweed bug. The conditions noted are these: Oncopeltus fasciatus, 48 h, read-out: % Kill, MWB (initial contact).
Data set [13] deals with granary weevil. Kind of data set: Residual contact activity, granary weevil. The conditions noted are these: Sitophilus granarius, 48 h, read-out: % Kill, GW (residual contact).
Data set [14] concerns pea aphid. Kind of data set: Initial contact activity, pea aphid. The conditions noted are these: Acyrthosiphon pisum, 48 h, read-out: % Kill, PA (initial contact).
Data set [15] has as its system Mexican bean beetle. Put plainly: whole plant or invertebrate. The conditions noted are these: Epilachna varivestis, 48 h, read-out: % Kill, BB (systemic).
Data set [16] relates to two-spotted spider mite. Put plainly: Initial contact activity, two-spotted spider mite. The conditions noted are these: Tetranychus urticae, 48 h, read-out: % Kill, SM (initial contact).
In data set [17] the test system is two-spotted spider mite. Put plainly: Residual contact activity, two-spotted spider mite. The conditions noted are these: Tetranychus urticae, 48 h, read-out: % Kill, SM (residual contact).
Data set [18] relates to Mexican bean beetle. Put plainly: Initial contact activity, Mexican bean beetle. The conditions noted are these: Epilachna varivestis, 48 h, read-out: % Kill, BB (initial contact).
The mark [19] stands for this setting: 39 ppm soil watering, group printed before the slash (separate test vs carbofuran).
Where [20] appears, read: read-out: % Kill, SM (systemic).

Values after ≈ are worked out from the molar mass of the structure shown. Where two headings read alike, the source gives them in different places.

With `Cc1ccc(SN(C)C(=O)Oc2cccc3c2OC(C)(C)C3)c(C)c1` [XIII, 2,3-Dihydro-2,2-dimethyl-7-benzofuranyl (2,4-dimethylphenylthio)(methyl)carbamate], the LD50 at 48 h in “in vivo” was in the range of 50 to 100 mg/kg. Also, the LC50 with Culex fatigans was found to be 3 ng/mL (≈ 0.00839 µM). In addition, in the data set on houseflies, the LD50 was 9 mg/kg.

In turn, `CN(Sc1ccc(Br)cc1)C(=O)Oc1cccc2c1OC(C)(C)C2` [VIII, 2,3-Dihydro-2,2-dimethyl-7-benzofuranyl (4-bromophenylthio)(methyl)carbamate] had an LD50 at 48 h in “in vivo” of 50 to 75 mg/kg. Besides, in the data set with Culex fatigans, the LC50 is 4 ng/mL (≈ 0.0098 µM). Further, the LD50 with houseflies was 9 mg/kg.

With `CN(Sc1nc2ccccc2s1)C(=O)Oc1cccc2c1OC(C)(C)C2` [Example VII, 2,3-Dihydro-2,2-dimethyl-7-benzofuranyl (2-benzothiazolylthio)(methyl)carbamate], the “% Kill, AW (systemic)” value with southern army worm [1] (setting [19]) worked out at 0%; in the data set on southern army worm [1] (156 ppm soil watering), 60%. In addition, the mortality at 1250 ppm with milkweed bug [2] was determined as 100%; with Mexican bean beetle [5] it was 100%; in the data set on pea aphid [8] it was 0%; in the data set on plum curculio [9], 100%; in the data set with granary weevil [10], 100%; in the data set with plum curculio [11], 55%. Further, the mortality at 1250 ppm in the data set with milkweed bug [12] worked out at 100%; in the data set on granary weevil [13] it was 100%; with pea aphid [14] it was 100%; in the data set with two-spotted spider mite [16], 72%; in the data set on two-spotted spider mite [17], 5%; in the data set with Mexican bean beetle [18] it was 91%. Also, the “% Kill, AW (residual contact)” value in the data set with southern army worm [3] is 100%. For the same compound, the “% Kill, AW (initial contact)” value in the data set with southern army worm [4] turned out to be 62%. The mortality at 39 ppm in the data set with pea aphid [6] was 100%; with two-spotted spider mite [7] (setting [20]), 3%; in the data set with Mexican bean beetle [15], 68%. Besides, the mortality at 156 ppm stood at 100% in the data set with pea aphid [6], 2% in the data set on two-spotted spider mite [7] (setting [20]) and 81% in the data set on Mexican bean beetle [15]. In the data set “in vivo”, this compound displayed an LD50 at 48 h of 50 mg/kg. The LC50 in the data set on Culex fatigans turned out to be 9.5 ng/mL (≈ 0.0246 µM). Further, the LD50 with houseflies turned out to be 8.5 mg/kg.

With `Cc1cc(Br)ccc1SN(C)C(=O)Oc1cccc2c1OC(C)(C)C2` [XI, 2,3-Dihydro-2,2-dimethyl-7-benzofuranyl (4-bromo-2-methylphenylthio)(methyl)carbamate], the “% Kill, AW (systemic)” value was found to be 75% in the data set on southern army worm [1] (setting [19]) and 100% in the data set with southern army worm [1] (156 ppm soil watering). Also, the mortality at 1250 ppm came to 95% in the data set on milkweed bug [2]; 100% with Mexican bean beetle [5]; 10% in the data set on pea aphid [8]; 100% in the data set on plum curculio [9]; 100% in the data set on granary weevil [10]; 40% with plum curculio [11]. Moreover, the mortality at 1250 ppm in the data set with milkweed bug [12] was found to be 100%; with granary weevil [13], 100%; in the data set with pea aphid [14], 35%; in the data set on two-spotted spider mite [16], 9%; in the data set with two-spotted spider mite [17], 3%; in the data set on Mexican bean beetle [18], 100%. In addition, the “% Kill, AW (residual contact)” value in the data set on southern army worm [3] is reported as 100%. Moreover, the “% Kill, AW (initial contact)” value with southern army worm [4] came to 100%. The results for the mortality at 39 ppm with pea aphid [6], in the data set on two-spotted spider mite [7] (setting [20]) and in the data set on Mexican bean beetle [15] were 100%, 23% and 95%, respectively. The mortality at 156 ppm in the data set with pea aphid [6] stood at 100%; in the data set with two-spotted spider mite [7] (setting [20]), 28%; with Mexican bean beetle [15] it was 100%. In the data set “in vivo”, this compound gave an LD50 at 48 h of 100 to 150 mg/kg. Besides, in the data set on Culex fatigans, the LC50 stood at 2.5 ng/mL (≈ 0.00592 µM). In the data set with houseflies, the LD50 stood at 11.2 mg/kg.

Take `CNC(=O)Oc1cccc2c1OC(C)(C)C2` [Carbofuran, 2,3-dihydro-2,2-dimethyl-7-benzofuranyl methylcarbamate, reference compound]: the “% Kill, AW (systemic)” value was determined as 50% in the data set with southern army worm [1] (setting [19]); 100% in the data set on southern army worm [1] (39 ppm soil watering, separate test vs carbofuran); 100% in the data set on southern army worm [1] (156 ppm soil watering). The mortality at 39 ppm in the data set with pea aphid [6] was found to be 100%; in the data set with two-spotted spider mite [7] (read-out: % Kill, SM (systemic), 39 ppm soil watering, group printed before the slash (separate test vs carbofuran)), 5%; in the data set with two-spotted spider mite [7] (read-out: % Kill, SM (systemic), 39 ppm soil watering, separate test vs carbofuran), 3%; with Mexican bean beetle [15], 100%. Also, the mortality at 156 ppm in the data set on pea aphid [6] was 100%; in the data set on two-spotted spider mite [7] (read-out: % Kill, SM (systemic), 156 ppm soil watering, group printed before the slash (separate test vs carbofuran)), 43%; in the data set with two-spotted spider mite [7] (read-out: % Kill, SM (systemic), 156 ppm soil watering, separate test vs carbofuran), 70%; in the data set on Mexican bean beetle [15], 100%. In addition, the LD50 at 48 h in the data set “in vivo” was determined as 2 mg/kg. Moreover, the LC50 in the data set on Culex fatigans was 52 ng/mL (≈ 0.235 µM).

`CN(Sc1ccccc1)C(=O)Oc1cccc2c1OC(C)(C)C2` [Example I, 2,3-Dihydro-2,2-dimethyl-7-benzofuranyl (methyl)(phenylthio)carbamate] registered an LD50 at 48 h in the data set “in vivo” of 25 to 50 mg/kg. In addition, the LC50 in the data set with Culex fatigans is 4.5 ng/mL (≈ 0.0137 µM). Besides, in the data set on houseflies, the LD50 stood at 9.3 mg/kg.

The compound `CN(Sc1ccc2ccccc2c1)C(=O)Oc1cccc2c1OC(C)(C)C2` [XVII, 2,3-Dihydro-2,2-dimethyl-7-benzofuranyl (methyl)(2-naphthylthio)carbamate] gave an LD50 at 48 h in the data set “in vivo” of 40 mg/kg. Also, the LC50 in the data set with Culex fatigans is 3.2 ng/mL (≈ 0.00843 µM). In the data set on houseflies, the LD50 was determined as 8 mg/kg.

In the case of `CN(Sc1ccc(C#N)cc1)C(=O)Oc1cccc2c1OC(C)(C)C2` [XV, 2,3-Dihydro-2,2-dimethyl-7-benzofuranyl (4-cyanophenylthio)(methyl)carbamate], in “in vivo”, the LD50 at 48 h was in the range of 25 to 50 mg/kg. Also, the LC50 with Culex fatigans was 22 ng/mL (≈ 0.0621 µM). Moreover, the LD50 in the data set with houseflies was determined as 22.5 mg/kg.

Regarding `CC(C)c1ccccc1SN(C)C(=O)Oc1cccc2c1OC(C)(C)C2` [XII, 2,3-Dihydro-2,2-dimethyl-7-benzofuranyl (2-isopropylphenylthio) (methyl)carbamate], the LD50 at 48 h in the data set “in vivo” lay in the range of 50 to 75 mg/kg. Moreover, the LC50 in the data set with Culex fatigans was 3 ng/mL (≈ 0.00808 µM). The LD50 in the data set on houseflies stood at 8.3 mg/kg.

In turn, `COc1ccc(SN(C)C(=O)Oc2cccc3c2OC(C)(C)C3)cc1` [IX, 2,3-Dihydro-2,2-dimethyl-7-benzofuranyl (4-methoxyphenylthio)(methyl)carbamate] showed an LD50 at 48 h in “in vivo” of 25 to 50 mg/kg. For the same compound, the LC50 with Culex fatigans worked out at 6 ng/mL (≈ 0.0167 µM). Besides, the LD50 with houseflies came out at 7.8 mg/kg.

In general, LD50 refers to the dose at which mortality reaches 50%. As usually defined, the LC50 is the concentration lethal to half of the exposed cells or organisms.

These data come from patent publication US3997549A, “N-arylsulfenylated derivatives of benzofuranyl methylcarbamates” (priority 1973, dated 1976).
